Measurements taken from patent US5775329A, “Method and compounds for diagnosing coronary artery disease” (Gensia, Inc., priority 1995, dated 1998).
Entries after “also recorded” stand apart in the source; their conditions may differ. Where a name gives a salt, the structure may show the parent alone.

Assays:
α-adrenoreceptor = experiment: In vitro bioassay for α-adrenergic activity (contraction of aortic rings); type: biochemical; settings: rabbit aortic rings, propranolol pretreated, 37° C., pH=7.4, read-out: α (aorta)
Description: (§1) In Vitro Bioassays for β1 -, β2 - and α-Adrenoreceptor Activity
(§2) Functional evaluation of β1 -, β2 - and α-adrenoreceptor activity was performed using in vitro preparations of guinea pig atria, guinea pig trachea, and rabbit aorta, respectively (Young, et. al, Drug Dev. Res. 1994, 32, 19-28).
For evaluation of α-adrenergic activity, male New Zealand white rabbits (2.5 kg) (Simunek Rabbitry, Vista, Calif.) were sacrificed by carbon dioxide inhalation and the thoracic aorta was quickly excised and placed in Krebs Ringer solution. The aorta was cut into 3-mm rings which were subsequently suspended on hooks in organ baths. The 2.5-ml water-jacketed baths were maintained at 37° C. and filled with Krebs Ringer solution aerated with 95% O2 and 5% CO2. The vascular rings were equilibrated for 1 h following the application of a resting tension of 4 g, during which time the buffer was changed at 15-min intervals. All rings were pretreated with propranolol ([…]) 10 min prior to addition of test compounds. Concentration-response curves were obtained by cumulative addition of compound to the organ bath, the concentration being increased only after maximal response to the preceding concentration was attained. After the final response was attained for each test drug, norepinephrine ([…]) was added to assess maximal contraction. Responses are expressed as a percent of the maximal contraction by norepinephrine.
(§3) In all experiments, tension was measured by isometric force transducers (52-9529, Harvard Apparatus, Natick, Mass.) coupled to an ink-writing recorder (Gould, Cleveland Ohio). The Krebs Ringer solution contained the following ingredients (mM): NaCl (118.1), NaHCO3 (25.0), D-glucose (11.1), KH2 PO4 (1.2), KCl (4.8), MgSO4 (1.2), CaCl2 (2.5), pH=7.4.

β2-adrenoreceptor = molecular target: T1, β2-adrenoreceptor (Cavia porcellus, UniProt Q8K4Z4); experiment: In vitro bioassay for β2-adrenergic activity (relaxation of precontracted tracheal rings); type: biochemical; settings: guinea pig tracheal rings precontracted with carbachol, 37° C., pH=7.4, read-out: β2 (trachea)
T1 construct: the trachea was gently excised and placed in ice-cold aerated Krebs Ringer solution; from tissue; host or cells: guinea pig tracheal rings
Description: as §1, §2
For the tracheal assay of β2 -adrenergic activity, male Hartley guinea pigs (350-500 g) were sacrificed by carbon dioxide inhalation and the trachea was gently excised and placed in ice-cold aerated Krebs Ringer solution. β2 -adrenergic activity was assessed as the relaxation of rings following precontraction with carbachol. The trachea were cut into transverse rings containing two cartilage segments, and sutures were tied onto the cartilage on either side of the band of smooth muscle of each ring. The sutures were used to mount the individual rings in a 2.5-ml organ bath and to measure tension with an isometric force transducer. The water-jacketed organ baths maintained the preparation at 37° C. and were filled with Krebs Ringer solution aerated with 95% O2 and 5% CO2. The tracheal rings were equilibrated for 1 h following the application of 0.5 g resting tension. In some cases, equilibrated rings were then treated with the α2 -antagonist rauwolscine ([…]) and the β1 -antagonist atenolol ([…]) prior to precontraction with carbachol ([…]). Precontracted rings used as controls received treatments of saline only. Concentration-response curves were obtained by cumulative addition of drug to the organ bath, the concentration being increased only after the maximal relaxation to the preceding concentration was attained. After the final response was attained, isoproterenol ([…]) was added to assess maximal response for each preparation.
as §3

β1-adrenoreceptor = molecular target: T2, β1-adrenoreceptor (Cavia porcellus, UniProt H0W3H1); experiment: In vitro bioassay for β1-adrenergic activity (atrial rate); type: biochemical; settings: guinea pig atria, 37° C., pH=7.4, approximately four atrial preparations per compound
T2 construct: the hearts were excised and placed in ice-cold oxygenated Krebs Ringer buffer; tissue Charles River Laboratories (animals); host or cells: guinea pig atria (right and left, paired)
Description: as §1, §2
For the atrial assay of β1 -adrenergic activity, male Hartley guinea pigs (350-500 g; Charles River Laboratories, Wilmington, Mass.) were sacrificed by decapitation and the hearts were excised and placed in ice-cold oxygenated Krebs Ringer buffer. The atria were separated from the ventricles, leaving the right and left atria attached as a pair. A suture was placed at the apex of each atrial appendage for securing the tissue within the organ bath. The water-jacketed 25-ml organ baths were maintained at 37° C. and filled with Krebs Ringer solution aerated with 95% O2 and 5% CO2. The atrial pairs were equilibrated for at least 20 min after application of 1 g resting tension. β1 -adrenergic activity was assessed using atrial rate (beats per min) and amplitude of contraction (g tension) which were monitored at 1 and 5 min after dosing. Concentration-response curves (10^-11 -10^-4 M) were obtained by cumulative addition of drug to the bath. Following the completion of the dose response curves, isoproterenol was added to assess maximal response of each atrial preparation. EC50 values were calculated from the rate results of approximately four atrial preparations per compound.
as §3

heart rate = experiment: Pharmacodynamics in conscious dogs during transdermal iontophoretic administration; type: in vivo, dog; settings: 10 min
Description: Pharmacodynamics in conscious dogs during transdermal iontophoretic administration
Dogs were trained to lie quietly on a table. Heart rate was monitored by ECG limb leads. Novel catecholamines were administered from a gel-filled electrode placed on the surface of the skin. A second electrode was placed on the skin to complete the electrical circuit. All compounds were delivered using a current of 0.25 mA for a period of 10 minutes. Heart rate was monitored by the ECG, and the T50 of the compound was measured as the time after termination of current required for heart rate to return 50% toward baseline rate. A "delay" time was also measured as the time required for heart rate to begin to fall, following termination of current.

[1] = test system: heart rate (chronotropic response); experiment: Pharmacodynamics in conscious dogs during i.v. administration (chronotropic response and offset); type: in vivo, dog
Description: […] The T50 s were measured from end of infusion.
Pharmacodynamics in conscious dogs during i.v. administration
Dogs were trained to lie quietly on a table. Novel catecholamine compounds were administered via a venous catheter acutely placed in a leg vein. […] Heart rate was recorded by computer from ECG limb leads at 5 second intervals throughout the experiment. […]

[2] = iontophoresis 0.25 mA, concentration (mM): isoproterenol 2.5, arbutamine 20, Ex 4 2, Ex 1 3, Ex 11 12, Ex 9 8, Ex 6 8
[3] = Example 13, i.v. stepwise ascending doses up to 100 ng/kg/min
[4] = Example 13, i.v., from termination of infusion (100 ng/kg/min) to 50% fall in heart rate towards baseline
[5] = Table I, i.v., measured from end of infusion at highest dose 100 ng/kg/min
[6] = Table I, stable increase over baseline at highest dose (100 ng/kg/min i.v.), ascending doses
[7] = Example 13, i.v., dose reached 300 ng/kg/min

T2 sequence (H0W3H1 1-470): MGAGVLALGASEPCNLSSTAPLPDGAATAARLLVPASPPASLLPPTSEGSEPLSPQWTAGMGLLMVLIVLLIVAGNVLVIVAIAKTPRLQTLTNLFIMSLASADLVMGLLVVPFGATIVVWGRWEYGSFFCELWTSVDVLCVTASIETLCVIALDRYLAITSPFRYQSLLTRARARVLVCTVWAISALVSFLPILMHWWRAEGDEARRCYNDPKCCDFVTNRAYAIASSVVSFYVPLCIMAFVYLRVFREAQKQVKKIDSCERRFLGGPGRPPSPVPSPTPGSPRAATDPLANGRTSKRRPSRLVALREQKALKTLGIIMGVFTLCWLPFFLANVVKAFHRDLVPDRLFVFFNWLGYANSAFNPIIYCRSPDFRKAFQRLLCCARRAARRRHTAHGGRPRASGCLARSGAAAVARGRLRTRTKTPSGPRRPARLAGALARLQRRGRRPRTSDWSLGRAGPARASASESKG
T1 sequence (Q8K4Z4 whole entry): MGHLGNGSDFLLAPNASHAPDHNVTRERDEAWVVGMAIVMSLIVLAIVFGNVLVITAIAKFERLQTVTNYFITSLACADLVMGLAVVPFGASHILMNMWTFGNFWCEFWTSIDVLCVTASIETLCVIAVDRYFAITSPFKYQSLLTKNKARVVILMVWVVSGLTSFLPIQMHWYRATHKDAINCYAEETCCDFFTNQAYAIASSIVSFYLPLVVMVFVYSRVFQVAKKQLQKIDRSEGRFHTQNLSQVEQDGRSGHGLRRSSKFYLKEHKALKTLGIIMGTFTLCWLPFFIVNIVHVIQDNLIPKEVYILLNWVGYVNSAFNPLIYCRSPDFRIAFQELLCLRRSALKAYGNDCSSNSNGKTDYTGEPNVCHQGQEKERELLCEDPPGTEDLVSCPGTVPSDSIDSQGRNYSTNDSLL

Row | Compound | EC50 (α-adrenoreceptor) | EC50 (β2-adrenoreceptor) | EC50 (β1-adrenoreceptor) | Delay (time required for heart rate to begin to fall following termination of current) (heart rate; [2]) | T50 (time after termination of current for heart rate to return 50% toward baseline) (heart rate; [2]) | Δ Heart Rate (heart rate; [2]) | Δ Heart Rate [1, 3] | T50 [1, 4] | T50 [1, 5] | Δ Heart Rate [1, 6] | offset time / T50 (in words) ([1]; i.v., compared with isoproterenol and arbutamine) | T50 (time required for the chronotropic response to decrease by 50%) ([1]; oxalate salt, dog studies) | T50 [1, 7] | Δ Heart Rate [1, 7] | Δ Heart Rate (heart rate)
1 | CSCCCNC[C@H](O)c1ccc(O)c(O)c1 [Example 11, 1-(R)-(3,4-dihydroxyphenyl)-2-(3-methylthiopropylamino)ethanol] | 88300 ± 5660 nM | 16 ± 1.2 nM | 9.7 ± 2 nM | 0.8 ± 0.2 min | 12.7 ± 3.6 min | 89 ± 7 beats/min | 109 ± 4 | 3.6 ± 0.2 min | 3.6 ± 0.3 min | 109 ± 4 beats/min | shorter than for both isoproterenol and arbutamine; also recorded: substantially shorter T50 than isoproterenol and arbutamine | 3.6 min | – | – | –
2 | C[S+]([O-])CCCNC[C@H](O)c1ccc(O)c(O)c1 (stereo partly drawn) [Example 6, 1-(R)-(3,4-dihydroxyphenyl)-2-(3-methylsulfinylpropylamino)ethanol] | > 10000 nM | 140 ± 35.3 nM | 14.9 ± 3.6 nM | 0.9 ± 0.5 min | 13.6 ± 2.3 min | 93 ± 6 beats/min | 93 ± 3 | 5.4 ± 1.3 min | – | – | – | – | – | – | –
3 | C[S+]([O-])CCCCNC[C@H](O)c1ccc(O)c(O)c1 (stereo partly drawn) [Example 7, 1-(R)-(3,4-dihydroxyphenyl)-2-(4-methylsulfinylbutylamino)ethanol] | 5500 ± 456 nM | 245 ± 84.7 nM | 13.3 ± 1 nM | – | – | – | – | – | – | – | – | – | – | – | –
4 | CC(C)NCC(O)c1ccc(O)c(O)c1 (centres unmarked) [Isoproterenol, reference compound] | – | – | – | 1.2 ± 0.5 min | 12.2 ± 1.9 min | 80 ± 11 beats/min | – | – | 5.5 ± 1.0 min | 103 ± 12 beats/min | – | – | – | – | –
5 | CCSCCCNC[C@H](O)c1ccc(O)c(O)c1 [Example 10, 1-(R)-(3,4-dihydroxyphenyl)-2-(3-ethylthiopropylamino)ethanol] | > 10000 nM | 124 ± 13.6 nM | 4.8 ± 0.7 nM | – | – | – | – | – | – | – | – | – | – | – | –
6 | CC(CCCC#N)NC[C@H](O)c1ccc(O)c(O)c1 (stereo partly drawn) [Example 2, 1-(R)-(3,4-dihydroxyphenyl)-2-(1-methyl-4-cyanobutylamino)ethanol] | 15600 ± 8220 nM | 2.7 ± 0.5 nM | 3.4 ± 0.4 nM | – | – | – | – | – | – | – | – | – | – | – | –
7 | CC(CCC[S+](C)[O-])NC[C@H](O)c1ccc(O)c(O)c1 (stereo partly drawn) [*, 1 (R)(3,4-dihyroxyphenyl)-2-(1-methyl-4-methylsulfinylbutylamino) ethano oxalate salt] | 7830 ± 239 nM | – | 1.4 ± 0.3 nM | – | – | – | – | – | – | – | – | – | – | – | –
8 | CSCCCCNC[C@H](O)c1ccc(O)c(O)c1 [Example 9, 1-(R)-(3,4-dihydroxyphenyl)-2-(4-methylthiobutylamino)ethanol] | 1400 ± 82 nM | 20 ± 3.4 nM | 2.9 ± 0.6 nM | 0.6 ± 0.6 min | 9.3 ± 0.5 min | 82 ± 9 beats/min | – | – | – | – | – | – | 3.6 ± 0.34 min | 93 ± 6 | –
9 | CSCCCC(C)NC[C@H](O)c1ccc(O)c(O)c1 (stereo partly drawn) [Example 8, 1-(R)-(3,4-dihydroxyphenyl)-2-(1-methyl-4-methylthiobutylamino)ethanol] | 20900 ± 9850 nM | 4.6 ± 0.2 nM | 0.6 ± 0.3 nM | – | – | – | – | – | – | – | – | – | – | – | –
10 | COCCCC(C)NC[C@H](O)c1ccc(O)c(O)c1 (stereo partly drawn) [Example 5, 1-(R)-(3,4-dihydroxyphenyl)-2-(1-methyl-4-methoxybutylamino)ethanol] | 51800 ± 19200 nM | 8.2 ± 1.6 nM | 1.5 ± 0.4 nM | – | – | – | – | – | – | – | – | – | – | – | –
11 | COCCC(C)NC[C@H](O)c1ccc(O)c(O)c1 (stereo partly drawn) [Example 4, 1-(R)-(3,4-dihydroxyphenyl)-2-(1-methyl-3-methoxypropylamino)ethanol] | > 100000 nM | 9.9 ± 1.3 nM | 1.1 ± 0.2 nM | 0.3 ± 0.1 min | 9.1 ± 0.8 min | 79 ± 8 beats/min | 98 ± 8 | 5.0 ± 0.7 min | – | – | – | – | – | – | –
12 | COCCCNC[C@H](O)c1ccc(O)c(O)c1 [Example 3, 1-(R)-(3,4-dihydroxyphenyl)-2-(3-methoxy-propylamino)ethanol] | 61300 ± 3820 nM | 21 ± 3 nM | 19 ± 5.4 nM | – | – | – | – | – | – | – | – | – | – | – | –
13 | N#CCCCNC[C@H](O)c1ccc(O)c(O)c1 [Example 1, 1-(R)-(3,4-dihydroxyphenyl)-2-(3-cyanopropylamino)ethanol] | 7500 ± 2840 nM | 4.7 ± 1.2 nM | 4.6 ± 0.7 nM | 1.9 ± 0.5 min | 12.4 ± 1.3 min | – | 109 ± 5 | 6.9 ± 0.6 min | – | – | – | – | – | – | 77 ± 1.3 beats/min
14 | Oc1ccc(CCCCNC[C@H](O)c2ccc(O)c(O)c2)cc1 [Arbutamine, reference compound] | – | – | – | 2.3 ± 1.4 min | 24.8 ± 2.7 min | 84 ± 5 beats/min | – | – | 7.2 ± 1.1 min | 84 ± 9 beats/min | – | – | – | – | –
